Paper PMC3511314, “Functional Characterization of Two M42 Aminopeptidases Erroneously Annotated as Cellulases” (PLoS ONE, 2012)

Assays:
Format in all cases: biochemical
TmPep1050 [1] = target: T1, TmPep1050 (Thermotoga maritima, UniProt Q9X0E0); experiment: specific activity of pNA hydrolysis at […] substrate
T1 construct: gene TM_1050; recombinant TmPep1050 (TM1050 ORF)
T1 sequence (Q9X0E0 1-331): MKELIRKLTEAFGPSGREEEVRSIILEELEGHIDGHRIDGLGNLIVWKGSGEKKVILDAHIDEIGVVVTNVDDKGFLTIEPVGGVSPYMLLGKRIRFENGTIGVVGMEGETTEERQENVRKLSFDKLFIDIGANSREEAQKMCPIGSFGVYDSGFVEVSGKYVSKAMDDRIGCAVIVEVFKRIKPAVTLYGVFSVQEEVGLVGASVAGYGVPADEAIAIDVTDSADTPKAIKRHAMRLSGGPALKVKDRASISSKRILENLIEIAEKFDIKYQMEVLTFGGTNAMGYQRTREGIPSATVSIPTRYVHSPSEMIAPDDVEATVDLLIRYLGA

CelM [2] = target: T2, CelM (Acetivibrio thermocellus, UniProt P55742); experiment: specific activity of pNA hydrolysis at […] substrate
T2 construct: recombinant CelM bearing a C-terminal hexahistidine tag
T2 sequence (P55742 1-330): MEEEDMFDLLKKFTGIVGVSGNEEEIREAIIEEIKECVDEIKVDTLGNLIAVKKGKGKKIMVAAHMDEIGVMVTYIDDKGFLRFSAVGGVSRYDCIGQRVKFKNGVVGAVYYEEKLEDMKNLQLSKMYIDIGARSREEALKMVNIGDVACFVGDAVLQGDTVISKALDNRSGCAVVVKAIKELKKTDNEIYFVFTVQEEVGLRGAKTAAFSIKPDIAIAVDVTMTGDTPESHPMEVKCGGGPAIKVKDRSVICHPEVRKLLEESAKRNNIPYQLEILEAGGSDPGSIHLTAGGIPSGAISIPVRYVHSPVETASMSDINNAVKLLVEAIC

TmPep1050 [3] = target: T1, TmPep1050; experiment: inhibition of leucine aminopeptidase activity of purified enzyme, apparent Ki
CelM [4] = target: T2, CelM; experiment: as above

## CC(C)[C@H](N)C(=O)Nc1ccc([N+](=O)[O-])cc1 [L-Val-pNA]
TmPep1050 [1]
  TmPep1050 sp act: 14.3±1.8 µmol min^−1 µmol^−1
CelM [2]
  CelM sp act: 8.4±0.016 µmol min^−1 µmol^−1

## CC(C)C[C@H](NC(=O)[C@@H](O)[C@H](N)Cc1ccccc1)C(=O)O [bestatin]
TmPep1050 [3]
  Ki: 0.432 ± 0.072 µM
CelM [4]
  Ki: 0.292 ± 0.066 µM
